Values quoted from earlier work as cited in patent publication US5952465A, “Polypeptides that include conformation-constraining groups which flank a protein-protein interaction site” (Virginia Commonwealth University, priority 1998, dated 1999).
Where a SMILES comes first, the peptide text is derived from it.

System: receptors of sweet tasting papillae
Details: comparison substance

COC(=O)[C@H](Cc1ccccc1)NC(=O)[C@@H](N)CC(=O)O [aspartame] (H-Asp-Phe-OMe)
Sweetness relative to sugar: 160 times sweeter than sugar
